Results reported in article PMC5872150 (ACS chemical neuroscience, 2017).
Counter-ions that a name gives are not always drawn. Like-named read-outs stand apart in the source and are kept apart here.

How the values were obtained:
[1] = system: CHO-hM1 cells; assay: Ca2+ assay features: Fluo-4 fluorescent signal of CHO-hM1 cells; assay type: cell-based, Chinese hamster; settings: bath application
[2] = system: pilocarpine-induced seizures in C57BL/6 mice; assay: Pilocarpine-induced seizures; assay type: in vivo, mouse
[3] = target: T1, human M1 mAChR (Homo sapiens, UniProt P11229)
T1 sequence (P11229 1-460): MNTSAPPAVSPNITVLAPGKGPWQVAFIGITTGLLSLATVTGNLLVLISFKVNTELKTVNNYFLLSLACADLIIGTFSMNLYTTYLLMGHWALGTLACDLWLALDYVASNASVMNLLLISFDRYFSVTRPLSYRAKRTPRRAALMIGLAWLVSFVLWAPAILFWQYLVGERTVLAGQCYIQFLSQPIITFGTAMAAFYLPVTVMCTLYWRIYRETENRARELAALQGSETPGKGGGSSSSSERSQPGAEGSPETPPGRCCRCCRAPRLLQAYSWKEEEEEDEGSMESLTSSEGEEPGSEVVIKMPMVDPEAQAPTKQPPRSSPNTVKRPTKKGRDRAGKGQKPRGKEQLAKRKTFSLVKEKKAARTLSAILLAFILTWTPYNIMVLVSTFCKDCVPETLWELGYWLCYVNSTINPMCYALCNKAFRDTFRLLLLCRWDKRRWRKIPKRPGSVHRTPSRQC

[4] = system: pilocarpine-induced total fluid secretion in C57BL/6 mice; settings: s.c., pilocarpine 50 mg/kg i.p.
[5] = target: human α7 nAChR (Homo sapiens, UniProt P36544); settings: for inhibition of acetylcholine-induced inward current: acetylcholine 1 mM
human α7 nAChR, sequence (P36544 23-502): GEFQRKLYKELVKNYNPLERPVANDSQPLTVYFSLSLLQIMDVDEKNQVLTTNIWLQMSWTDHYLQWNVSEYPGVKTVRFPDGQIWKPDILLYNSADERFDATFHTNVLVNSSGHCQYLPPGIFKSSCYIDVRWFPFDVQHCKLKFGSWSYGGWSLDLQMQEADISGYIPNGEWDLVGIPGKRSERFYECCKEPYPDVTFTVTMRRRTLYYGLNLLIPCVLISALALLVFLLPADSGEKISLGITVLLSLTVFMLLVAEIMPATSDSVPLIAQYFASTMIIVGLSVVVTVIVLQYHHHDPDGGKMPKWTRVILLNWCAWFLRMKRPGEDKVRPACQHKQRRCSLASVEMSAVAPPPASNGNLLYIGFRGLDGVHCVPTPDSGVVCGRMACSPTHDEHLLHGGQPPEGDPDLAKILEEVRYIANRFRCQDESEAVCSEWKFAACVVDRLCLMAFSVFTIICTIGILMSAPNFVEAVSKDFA

C/C=C(/C)C(=O)O[C@H]1C(C)=C2[C@H]([C@@H]1OC(=O)CCCCCCC)[C@@](C)(OC(C)=O)C[C@H](OC(=O)CCC)[C@@]1(O)[C@H]2OC(=O)[C@@]1(C)O [Thapsigargin]
effect on Ca2+-dependent fluorescent counts ([1]; thapsigargin 1 μM): smaller and slower increase in the fluorescent counts

CN1[C@@H]2CC[C@H]1C[C@@H](OC(=O)C(CO)c1ccccc1)C2 (some centres unmarked) [atropine sulfate, Atropine sulfate monohydrate, reference compound]
effect on pilocarpine-induced seizures ([2]; 3 mg/kg s.c. 25 min before pilocarpine 278 mg/kg): blocked the development of seizures in every mouse

ethylatropine bromide
time to behavior score 3 after pilocarpine administration ([2]; 100 mg/kg s.c. 25 min before pilocarpine 278 mg/kg, all six mice): ≤ 30 min | effect on pilocarpine-induced seizures ([2]; 100 mg/kg s.c. 25 min before pilocarpine 278 mg/kg, six mice): experienced at least one tonic seizure | fold less potent than atropine at human M1 muscarinic receptors [3]: approximately 3.3 fold | approximate IC50 for attenuation of pilocarpine-induced total secretion [4]: ~0.3 mg/kg | inhibition of acetylcholine-induced inward current ([5]; 3 μM, n = 3): 1.2 ± 8% | inhibition of acetylcholine-induced inward current ([5]; 30 μM, n = 5): 29 ± 3% | inhibition of acetylcholine-induced inward current ([5]; 300 μM, n = 4): 46 ± 2% | fold less potent than atropine sulfate at α7 nicotinic receptors ([5]; ratio of estimated IC50s): ~300 fold

Nc1ncnc2c1ncn2[C@@H]1O[C@H](COP(=O)(O)OP(=O)(O)OP(=O)(O)O)[C@@H](O)[C@H]1O [ATP]
effect on Ca2+-dependent fluorescent counts ([1]; ATP 100 μM): rapidly increased the fluorescent counts
